# Residues, ends and D or L forms follow the SMILES beside them.
# Legend:
# Aminopeptidase B [1] = target: T1, Aminopeptidase B (Mus musculus, UniProt Q8VCT3); assay: Inhibition of Aminopeptidase B in murine L-cells by Aoyagi method.
# T1 sequence (Q8VCT3 whole entry): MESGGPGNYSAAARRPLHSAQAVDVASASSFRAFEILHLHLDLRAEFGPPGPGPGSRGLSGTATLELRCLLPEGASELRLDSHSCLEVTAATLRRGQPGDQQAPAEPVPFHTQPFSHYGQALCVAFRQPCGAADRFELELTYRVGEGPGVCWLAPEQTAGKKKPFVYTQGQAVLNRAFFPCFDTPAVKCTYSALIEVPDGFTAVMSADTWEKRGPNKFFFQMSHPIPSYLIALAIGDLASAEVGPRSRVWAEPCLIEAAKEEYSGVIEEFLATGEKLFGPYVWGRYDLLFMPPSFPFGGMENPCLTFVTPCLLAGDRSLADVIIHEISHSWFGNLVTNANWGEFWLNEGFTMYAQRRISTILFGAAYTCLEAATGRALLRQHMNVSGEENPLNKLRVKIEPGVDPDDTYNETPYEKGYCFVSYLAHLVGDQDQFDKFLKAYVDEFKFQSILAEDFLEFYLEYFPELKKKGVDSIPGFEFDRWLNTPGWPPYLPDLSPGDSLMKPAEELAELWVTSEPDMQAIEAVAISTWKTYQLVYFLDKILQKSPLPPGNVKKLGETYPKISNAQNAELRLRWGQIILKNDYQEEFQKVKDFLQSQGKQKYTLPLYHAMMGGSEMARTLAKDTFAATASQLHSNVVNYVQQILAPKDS
# Aminopeptidase N [2] = target: T2, Aminopeptidase N (Homo sapiens, UniProt P15144); assay: Inhibition of Aminopeptidase M.
# Aminopeptidase B [3] = target: T1, Aminopeptidase B; assay: Concentration required for inhibitory potency against Aminopeptidase B in murine L-cells by aoyagi method using L-lysine-2-naphthylamide hydrochloride as substrate (0.5mM, Km=0.9*10e-4 M)
# Aminopeptidase N [4] = target: T2, Aminopeptidase N; assay: Concentration required for inhibitory potency on Aminopeptidase M using L-leucine-2-naphthylamide hydrochloride as substrate(0.5 mM, Km=0.6*10e-4 M)
# T2 sequence (P15144 whole entry): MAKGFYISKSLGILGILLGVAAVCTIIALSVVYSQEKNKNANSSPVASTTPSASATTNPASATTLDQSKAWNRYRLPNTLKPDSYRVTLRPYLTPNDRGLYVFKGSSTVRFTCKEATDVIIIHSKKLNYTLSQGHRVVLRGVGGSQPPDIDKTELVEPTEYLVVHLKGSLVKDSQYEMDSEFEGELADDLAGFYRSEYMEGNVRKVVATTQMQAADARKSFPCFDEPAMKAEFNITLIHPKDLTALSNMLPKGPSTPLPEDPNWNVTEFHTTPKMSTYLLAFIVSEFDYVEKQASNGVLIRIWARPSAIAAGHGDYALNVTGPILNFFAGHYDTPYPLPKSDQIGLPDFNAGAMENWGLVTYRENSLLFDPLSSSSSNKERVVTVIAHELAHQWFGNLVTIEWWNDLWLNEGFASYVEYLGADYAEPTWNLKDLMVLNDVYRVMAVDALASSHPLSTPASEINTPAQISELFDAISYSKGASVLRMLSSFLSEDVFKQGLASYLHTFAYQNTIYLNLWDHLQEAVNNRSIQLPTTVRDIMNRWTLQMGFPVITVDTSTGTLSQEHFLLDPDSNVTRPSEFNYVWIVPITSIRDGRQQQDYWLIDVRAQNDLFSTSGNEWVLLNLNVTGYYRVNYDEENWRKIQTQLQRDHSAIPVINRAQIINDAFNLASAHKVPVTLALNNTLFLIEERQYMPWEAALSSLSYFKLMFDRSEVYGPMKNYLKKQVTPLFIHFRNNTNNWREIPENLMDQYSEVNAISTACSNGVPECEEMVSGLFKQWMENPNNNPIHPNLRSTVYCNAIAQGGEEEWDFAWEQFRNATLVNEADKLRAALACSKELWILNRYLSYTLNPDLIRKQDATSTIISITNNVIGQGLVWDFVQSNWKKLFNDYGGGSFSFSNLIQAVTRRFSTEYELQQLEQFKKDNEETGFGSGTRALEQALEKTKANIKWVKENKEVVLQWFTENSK
Structure (SMILES),IC50 (Aminopeptidase B [1]),IC50 (Aminopeptidase N [2]),IC50 (Aminopeptidase B [3]),IC50 (Aminopeptidase N [4])
COC(=O)[C@H](Cc1ccccc1)N[C@@H](C#N)[C@@H](N)Cc1ccccc1,221 µM,–,–,–
COC(=O)[C@@H](NC(C#N)[C@@H](N)Cc1ccccc1)C(C)C (some centres not stated),36 µM,–,–,–
"COC(=O)C1CCCN1C(=O)[C@H](CC(C)C)NC(C(N)=O)[C@@H](N)Cc1ccccc1 (single isomer, unassigned) [listing 2 of 2 here]",–,–,1000 µM,783 µM
COC(=O)[C@H](CCCCN)NC(C#N)[C@@H](N)Cc1ccccc1 (some centres not stated),44 µM,–,–,–
COC(=O)[C@H](CC(C)C)NC(C#N)[C@H](Cc1ccccc1)NC(=O)OC(C)(C)C (mixture of isomers),1000 µM,1000 µM,–,–
CC(C)C[C@H](NC(=O)[C@@H](N)Cc1ccccc1)C(=O)O (H-Phe-Leu-OH),1000 µM,1000 µM,–,–
"COC(=O)[C@H](Cc1ccccc1)NC(C#N)[C@H](Cc1ccccc1)NC(=O)OC(C)(C)C (single isomer, unassigned; form 2)",1000 µM,1000 µM,–,–
COC(=O)[C@H](CC(C)C)NC(C#N)[C@@H](N)Cc1ccccc1 (some centres not stated),50 µM,–,–,–
CC(C)C[C@H](NC(=O)[C@@H](O)[C@H](N)Cc1ccccc1)C(=O)O [UBENIMEX],6 µM,–,–,–

# The remaining compounds from weak to strong by IC50 (Aminopeptidase B [1]), led by results:
IC50 (Aminopeptidase B [1]),IC50 (Aminopeptidase N [2]),IC50 (Aminopeptidase B [3]),IC50 (Aminopeptidase N [4]),Structure (SMILES)
1000 µM,1000 µM,–,–,"COC(=O)C1CCCN1C(=O)[C@H](CC(C)C)NC(C(N)=O)[C@@H](N)Cc1ccccc1 (single isomer, unassigned) [listing 1 of 2 here]"
1000 µM,1000 µM,–,–,"COC(=O)C1CCCN1C(=O)[C@H](CC(C)C)NC(C#N)[C@H](Cc1ccccc1)NC(=O)OC(C)(C)C (single isomer, unassigned; form 1)"
1000 µM,1000 µM,–,–,COC(=O)[C@H](CCCCN)NC(C#N)[C@H](Cc1ccccc1)NC(=O)OC(C)(C)C (mixture of isomers)
1000 µM,1000 µM,–,–,"COC(=O)[C@H](Cc1ccccc1)NC(C#N)[C@H](Cc1ccccc1)NC(=O)OC(C)(C)C (single isomer, unassigned; form 1)"
1000 µM,1000 µM,–,–,"COC(=O)[C@H](CC(C)C)NC(C(N)=O)[C@@H](N)Cc1ccccc1 (single isomer, unassigned)"
1000 µM,1000 µM,–,–,COC(=O)[C@@H](NC(C#N)[C@H](Cc1ccccc1)NC(=O)OC(C)(C)C)C(C)C (some centres not stated)
1000 µM,1000 µM,–,–,"COC(=O)C1CCCN1C(=O)[C@H](CC(C)C)NC(C#N)[C@H](Cc1ccccc1)NC(=O)OC(C)(C)C (single isomer, unassigned; form 2)"
824 µM,793 µM,–,–,COC(=O)[C@@H]1CCCN1C(=O)[C@H](CC(C)C)NC(=O)[C@@H](N)Cc1ccccc1 (H-Phe-Leu-Pro-OMe)
293 µM,–,–,–,COC(=O)[C@H](Cc1ccccc1)N[C@H](C#N)[C@@H](N)Cc1ccccc1
28 µM,–,–,–,COC(=O)[C@@H]1CCCN1C(=O)[C@H](CC(C)C)N[C@@H](C#N)[C@@H](N)Cc1ccccc1
14 µM,–,–,–,"COC(=O)C1CCCN1C(=O)[C@H](CC(C)C)NC(C#N)[C@@H](N)Cc1ccccc1 (single isomer, unassigned)"

# — ChEMBL document CHEMBL1127914, “Pseudopeptide inhibitors of aminopeptidases containing the [CH(CN)NH] surrogate as a transition-state MIMIC” (Bioorg Med Chem Lett, 1994)
